Here are results for eleven compounds from patent publication US20140335172A1, “OPHTHALMOLOGICAL RINSING AGENT AND METHODS THEREFOF” (priority 2013, published 2014).

Like-named read-outs stand apart in the source and are kept apart here.

Data set [1] in a line: Relative efficacy ranking of oil solvents. The settings on record: relative rank, 1 = most efficient.
The conditions of data set [2]: cited from earlier work.
The nature of data set [3]: Relative volatility ranking of oil solvents. Type of data set: physicochemical. The settings on record: relative rank, 1 = most volatile.
For data set [4] the following is noted: cited from earlier work; for Kinematic Viscosity (Sticky**): Table 2.
For data set [5] the following is noted: cited from earlier work; for Specific Gravity, at 25° C.: silicone oil grade given by kinematic viscosity, cSt.
The conditions of data set [6]: cited from earlier work. This is another data set of the same source.
The conditions of data set [7]: cited from earlier work. This is another data set of the same source.
Data set [8] has as its system RGC-5. The following applies: RGC-5, 30 minutes, n=3. The method, then:
In the study, CellTiter 96® AQueous non-radioactive cell proliferation assay (MTS) and Cytotoxicity Detection Kit (LDH assay) were used to test for the cell viability and cell death of the RGC-5 and rMC-1 cells after incubation with the rinsing agent (FIG. 17). The major component of the rinsing agent is octamethyltrisiloxane (1.0 cSt Silicone Oil [SO]) with hydrophobic surfactant DC749 (Dow Corning). Rinsing agents with different concentration of DC749 (0%, 5%, 10% in vol.) were included. The incubation time was designed as 1 hr because the proposed use of the rinsing agent would not be longer than 15 mins in-vivo and therefore a 1 hr study would be more than sufficient in deciding the effect of the proposed rinsing agent on the cells in the eye cavity. Hank's Balanced salt solution (HBSS) was used as the experimental control. Two liquids, perfluorodecalin (PFD) and F6H8, were also included in this study. PFD is a widely accepted short-term used intraoperative adjunct for flattening the folded retina during retinal surgery. F6H8 is a key component of Heavy Silicone Oil (HSO), which has been used as a long-term intraocular tamponade.
In a study similar to 6.4 above, the cell viability and the percentage cell death of RGC-5 were investigated in a 30-minute experiment.

Data set [9] can be described thus: Relative cell proliferation ranking of oil solvents. The data set is classed as cell-based. The following applies: relative rank, 1 = most proliferative.
Data set [10] has as its system rMC-1 cells. The data set is described as follows: MTS cell viability, rMC-1, 1 hr incubation. Type of data set: cell-based. The following applies: rMC-1 Müller cells, n=3. From the text:
The innermost cell layer of the retina is called the retinal ganglion cell layer. It consists mainly of retinal ganglion cells, with some Müller cells and also some blood capillaries. This cell layer is located closest to the vitreous anatomically and thus is almost in direct contact with the rinsing agent in this study. Therefore, a retinal ganglion cell line (RGC-5) and a rat Müller cell line were used in this in-vitro cell culture study to evaluate the biocompatibility of the rinsing agent in accordance with at least one embodiment of this application.

Data set [11] is described as follows: Relative cell toxicity ranking of oil solvents. The data set is classed as cell-based. Also noted: key: 1 = most efficient/toxic/proliferative/volatile. The following applies: relative rank, 1 = most toxic.
Where [12] appears, read: at 25 ° C., Table 4 surfactants.
Where [13] appears, read: silicone oil grade given by kinematic viscosity, cSt.

For the compound `CCCCCC(F)(F)C(F)(F)C(F)(F)C(F)(F)F` [F4H5], the Efficacy in data set [1] came out at 2. Moreover, in data set [2] (Table 3), the “Surface Tension (mN/m)” value is listed as 17.43 mN/m. The Volatility in data set [3] is reported as 2. Also, in data set [4], the “Kinematic Viscosity (Sticky**)” value is on record as 1.05 cSt and the “Dynamic Viscosity (mPa · s) at 25° C.” value was 1.05 mPa · s. For the same compound, the “Density (g/cm^3) at 25° C.” value in data set [5] (at 25° C., Table 3) was 1.284 g/mL. Moreover, the “Vapor Pressure (Torr)” value in data set [6] (37° C.) is 25.1 (37° C.) Torr.
Regarding `O` [H2O], the “Surface Tension (mN/m)” value in data set [2] (Table 3) is given as 72 mN/m. The “Dynamic Viscosity (mPa · s) at 25° C.” value in [4] is 0.89 mPa · s. Further, in data set [5] (at 25° C., Table 3), the “Density (g/cm^3) at 25° C.” value is 0.970 g/mL. For the same compound, in [6] (37° C.), the “Vapor Pressure (Torr)” value is given as 46.9 (37° C.) Torr.
For `C[Si]1(C)O[Si](C)(C)O[Si](C)(C)O[Si](C)(C)O[Si](C)(C)O1` [Decamethylcyclopentasiloxane], the “Density (g/cm^3) at 25° C.” value in [5] (setting [12]) is 0.954 g/mL. The “Henry's Law Constant, Pa m^3/mol at 25° C.” value (“Henry's Law Constant” for short) in [7] is 3,342,000 Pa m^3/mol. Moreover, the “Vapor Pressure, Pa at 25° C.” value in data set [6] is given as 33.2 Pa.
Consider `CCCCCCCCCCCCC(F)(F)C(F)(F)C(F)(F)C(F)(F)C(F)(F)C(F)(F)F` [F6H12], for which the “Surface Tension (mN/m)” value in [2] (Table 3) is listed as 21.1 mN/m. For the same compound, in data set [4], the “Dynamic Viscosity (mPa · s) at 25° C.” value is recorded as 6.99 mPa · s. In addition, the “Density (g/cm^3) at 25° C.” value in data set [5] (at 25° C., Table 3) was 1.25 g/mL.
Consider `C[Si](C)(C)O[Si](C)(C)C` [Hexamethyldisiloxane], for which the “Surface Tension (mN/m)” value in data set [2] (Table 3) and in [2] (setting [13]) was 15.9 mN/m in each case. The “Dynamic Viscosity (mPa · s) at 25° C.” value in [4] was 0.65 mPa · s. Moreover, the “Density” value in [5] (20° C., Table 3) was 0.764 g/mL. The “Specific Gravity, at 25° C.” value in [5] (at 25° C.) was 0.760. The “cell viability relative to HBSS, MTS assay” value in data set [8] (listed as 0.65 mPa·s SO) is “significant decrease of cell viability”; in data set [8] (listed as LMW-SO 0.65 mPa·s), “reducing the metabolism”. In [6] (37° C.), the “Vapor Pressure (Torr)” value is 42.2 (37° C.) Torr.
Consider `CCCCCCC(F)(F)C(F)(F)C(F)(F)C(F)(F)C(F)(F)C(F)(F)F` [F6H6], for which the “Surface Tension (mN/m)” value in data set [2] (Table 3) is recorded as 20.0 mN/m. In [4], the “Dynamic Viscosity (mPa · s) at 25° C.” value was 2.38 mPa · s. Also, the “Density (g/cm^3) at 25° C.” value in [5] (at 25° C., Table 3) was 1.386 g/mL. Besides, the “Vapor Pressure (Torr)” value in [6] (25° C.) was <1 (25° C.) Torr.
For the compound `C[Si]1(C)O[Si](C)(C)O[Si](C)(C)O[Si](C)(C)O1` [Octamethylcyclotetrasiloxane], in [5] (setting [12]), the “Density (g/cm^3) at 25° C.” value was 0.95 g/mL. Further, the “Henry's Law Constant” value in [7] is reported as 1,214,000 Pa m^3/mol. In addition, the “Vapor Pressure, Pa at 25° C.” value in data set [6] is recorded as 132 Pa.
Turning to `C[Si]1(C)O[Si](C)(C)O[Si](C)(C)O[Si](C)(C)O[Si](C)(C)O[Si](C)(C)O1` [Dodecamethylcyclobexasiloxane], the “Density (g/cm^3) at 25° C.” value in [5] (setting [12]) is 0.963 g/mL. In addition, the “Henry's Law Constant” value in [7] was 14,667 Pa m^3/mol. Moreover, the “Vapor Pressure, Pa at 25° C.” value in data set [6] is reported as 4.6 Pa.
On to `CCCCCCCCC(F)(F)C(F)(F)C(F)(F)C(F)(F)C(F)(F)C(F)(F)F` [F6H8], for which, in data set [1], the Efficacy is recorded as 3. In addition, the “Surface Tension (mN/m)” value in data set [2] (Table 3) was 19.65 mN/m. The same compound had a Volatility in [3] of 3. Also, the Cell proliferation in data set [9] is 2. Moreover, in data set [4], the “Kinematic Viscosity (Sticky**)” value is 3.44 cSt and the “Dynamic Viscosity (mPa · s) at 25° C.” value is 3.44 mPa · s. In addition, the “Density (g/cm^3) at 25° C.” value in [5] (at 25° C., Table 3) is 1.331 g/mL. The “cell viability relative to HBSS, MTS assay” value in data set [10] is listed as “significant decrease in cell viability”. In [11], the Cell toxicity was determined as 2. For the same compound, the “Vapor Pressure (Torr)” value in data set [6] (25° C.) is recorded as <1 (25° C.) Torr.
In [1], `FC(F)(F)C(F)(F)C(F)(F)C(F)(F)C(F)(F)C(F)(F)C(F)(F)C(F)(F)Br` [PFOB] had an Efficacy of 3. Besides, the “Surface Tension (mN/m)” value in data set [2] (Table 3) is 18 mN/m. This compound came in with a Volatility in [3] of 4. In data set [9], this compound had a Cell proliferation of 3. Also, in data set [4], the “Kinematic Viscosity (Sticky**)” value was 1.93 cSt and the “Dynamic Viscosity (mPa · s) at 25° C.” value is 1.93 mPa · s. Besides, in data set [5] (at 25° C., Table 3), the “Density (g/cm^3) at 25° C.” value is 1.930 g/mL. The compound further yielded a Cell toxicity in data set [11] of 1. Further, the “Vapor Pressure (Torr)” value in data set [6] (37° C.) is 10.5 (37° C.) Torr.
Regarding `C[Si](C)(C)O[Si](C)(C)O[Si](C)(C)C` [Octamethyltrisiloxane], the “Surface Tension (mN/m)” value in [2] (Table 3) and in data set [2] (setting [13]) was 17.4 mN/m throughout. For the same compound, in data set [4], the “Dynamic Viscosity (mPa · s) at 25° C.” value was 1.0 mPa · s. Further, in [5] (at 25° C., Table 3), the “Density (g/cm^3) at 25° C.” value is 0.818 g/mL. The “Specific Gravity, at 25° C.” value in data set [5] (at 25° C.) is given as 0.816. Besides, in [6] (25° C.), the “Vapor Pressure (Torr)” value was 4 (25° C.) Torr.
